Source: ChEMBL document CHEMBL5260813, “An overview on the recent developments of 1,2,4-triazine derivatives as anticancer compounds” (Eur J Med Chem, 2017)
Converted amounts (≈) assume the structure as drawn.

Columns and labels:
[1] = molecular target: T1, Tyrosine-protein kinase JAK3 (Homo sapiens, UniProt P52333); assay: Inhibition of JAK3 (unknown origin)
T1 sequence (P52333 whole entry): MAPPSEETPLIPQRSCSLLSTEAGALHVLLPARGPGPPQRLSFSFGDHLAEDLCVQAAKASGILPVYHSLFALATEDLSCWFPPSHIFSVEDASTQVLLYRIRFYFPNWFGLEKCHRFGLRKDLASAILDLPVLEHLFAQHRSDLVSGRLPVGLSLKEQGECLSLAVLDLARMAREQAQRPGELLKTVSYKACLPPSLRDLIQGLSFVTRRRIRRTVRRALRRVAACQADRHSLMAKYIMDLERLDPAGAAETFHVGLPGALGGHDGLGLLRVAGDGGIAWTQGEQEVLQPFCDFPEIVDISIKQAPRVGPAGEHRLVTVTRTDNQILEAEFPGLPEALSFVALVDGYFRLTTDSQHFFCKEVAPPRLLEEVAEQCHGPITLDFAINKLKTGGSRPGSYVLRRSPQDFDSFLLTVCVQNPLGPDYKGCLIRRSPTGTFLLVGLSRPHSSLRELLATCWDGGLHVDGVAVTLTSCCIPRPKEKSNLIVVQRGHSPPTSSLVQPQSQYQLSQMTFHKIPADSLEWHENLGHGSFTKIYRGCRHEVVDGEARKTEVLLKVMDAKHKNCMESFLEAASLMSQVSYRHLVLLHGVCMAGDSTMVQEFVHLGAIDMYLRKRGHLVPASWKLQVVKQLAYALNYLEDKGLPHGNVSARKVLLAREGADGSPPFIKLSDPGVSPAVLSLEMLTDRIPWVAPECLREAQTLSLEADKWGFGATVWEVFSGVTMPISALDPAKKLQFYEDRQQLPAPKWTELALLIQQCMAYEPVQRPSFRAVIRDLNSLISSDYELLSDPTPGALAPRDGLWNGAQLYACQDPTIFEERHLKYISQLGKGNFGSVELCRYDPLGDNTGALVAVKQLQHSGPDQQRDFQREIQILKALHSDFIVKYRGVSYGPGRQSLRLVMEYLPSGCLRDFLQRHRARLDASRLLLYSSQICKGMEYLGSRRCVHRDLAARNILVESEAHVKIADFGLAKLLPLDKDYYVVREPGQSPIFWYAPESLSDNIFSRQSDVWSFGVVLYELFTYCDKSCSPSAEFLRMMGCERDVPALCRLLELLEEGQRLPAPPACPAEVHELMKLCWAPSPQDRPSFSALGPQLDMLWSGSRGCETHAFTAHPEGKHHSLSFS

[2] = molecular target: Tyrosine-protein kinase JAK2 (Homo sapiens, UniProt O60674); assay: Inhibition of JAK2 (unknown origin)
[3] = test system: HT-29; assay: Antiproliferative activity against human HT-29 cells assessed as inhibition of cell growth by SRB assay; format: functional, cell-based
[4] = test system: HT-29; assay: Potency index, ratio of tirapazamine IC50 to compound IC50 for antiproliferative activity against human HT-29 cells; format: functional
[5] = molecular target: Cyclin-dependent kinase 2/cyclin E (Homo sapiens, UniProt P24941); assay: Inhibition of CDK2/cyclin E (unknown origin); format: protein-complex assay
[6] = test system: HCT-116; assay: Antiproliferative activity against human HCT-116 cells assessed as inhibition of cell growth; format: functional, cell-based
[7] = test system: MCF7; assay: Antiproliferative activity against human MCF7 cells assessed as inhibition of cell growth; format: functional, cell-based
[8] = molecular target: Cyclin-dependent kinase 2/cyclin E1 (Homo sapiens, UniProt P24941); assay: Inhibition of CDK2/cyclin E1 (unknown origin) expressed in Sf9 cells
[9] = molecular target: T2, Tyrosine-protein kinase SYK (Homo sapiens, UniProt P43405); assay: Inhibition of human SYK using 5-Fluo-Ahx-GAPDYENLQELNKK-Amid as substrate in presence of ATP by microfluidic mobility shift assay
[10] = molecular target: T2, Tyrosine-protein kinase SYK; assay: Inhibition of SYK in human Ramos cells assessed as reduction in anti IgM-induced phosphorylation of BLNK by flow cytometry assay; format: cell-based

Tyrosine-protein kinase JAK2, sequence (O60674 whole entry): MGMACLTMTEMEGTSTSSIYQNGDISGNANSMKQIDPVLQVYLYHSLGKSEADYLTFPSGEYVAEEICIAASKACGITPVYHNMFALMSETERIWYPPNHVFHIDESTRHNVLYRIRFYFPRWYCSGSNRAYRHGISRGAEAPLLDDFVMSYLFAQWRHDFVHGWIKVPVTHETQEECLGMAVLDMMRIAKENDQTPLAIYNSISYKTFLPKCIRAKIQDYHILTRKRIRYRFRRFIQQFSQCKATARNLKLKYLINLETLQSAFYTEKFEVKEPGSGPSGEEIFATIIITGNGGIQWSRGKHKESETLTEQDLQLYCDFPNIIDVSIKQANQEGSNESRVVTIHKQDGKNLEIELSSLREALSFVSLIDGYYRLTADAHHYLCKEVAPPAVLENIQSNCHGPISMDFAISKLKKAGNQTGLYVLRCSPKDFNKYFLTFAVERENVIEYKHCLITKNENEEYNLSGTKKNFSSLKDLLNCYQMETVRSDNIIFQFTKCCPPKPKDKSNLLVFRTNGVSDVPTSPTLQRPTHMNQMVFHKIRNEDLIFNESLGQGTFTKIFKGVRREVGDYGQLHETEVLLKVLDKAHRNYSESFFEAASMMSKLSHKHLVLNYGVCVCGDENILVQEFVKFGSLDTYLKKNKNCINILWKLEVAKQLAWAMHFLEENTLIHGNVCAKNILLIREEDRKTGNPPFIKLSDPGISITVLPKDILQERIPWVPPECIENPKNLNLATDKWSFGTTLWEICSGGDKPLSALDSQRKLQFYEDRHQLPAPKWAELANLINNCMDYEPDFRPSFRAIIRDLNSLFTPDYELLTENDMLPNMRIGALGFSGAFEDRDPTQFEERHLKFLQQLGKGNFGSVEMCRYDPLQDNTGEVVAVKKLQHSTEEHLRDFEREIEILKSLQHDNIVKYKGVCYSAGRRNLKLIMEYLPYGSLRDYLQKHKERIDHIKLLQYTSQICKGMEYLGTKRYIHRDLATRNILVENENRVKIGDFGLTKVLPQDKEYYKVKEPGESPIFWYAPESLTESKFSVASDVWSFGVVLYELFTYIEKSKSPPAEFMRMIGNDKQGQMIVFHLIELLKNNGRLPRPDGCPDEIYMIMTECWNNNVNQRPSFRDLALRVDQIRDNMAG

CC(C)(C)CNC(=O)C(C)(C)Nc1cnnc(-c2c[nH]c3ncc(C#N)cc23)n1
IC50 [1]: ≤ 0.01 µM
IC50 [2]: ≤ 0.01 µM

CCc1nc2ccccc2[n+]([O-])n1
IC50 [3]: > 3 µM
Ratio IC50 [4]: 1.3

CN(C)CCNc1nc2ccccc2[n+]([O-])n1
IC50 [3]: > 1 µM
Ratio IC50 [4]: 3.9

CC(C)C(Nc1cnnc(-c2c[nH]c3ncc(C(N)=O)cc23)n1)C(=O)NCC(C)(C)C (stereo not given)
IC50 [1]: ≤ 0.01 µM
IC50 [2]: ≤ 0.01 µM

Cc1n[nH]c(=S)n(-c2nnc(-c3ccc(F)cc3)c(-c3ccc(F)cc3)n2)c1=O
IC50 [5]: 9.75 µM

CC(Nc1cnnc(-c2c[nH]c3ncc(C#N)cc23)n1)C(=O)NCC(C)(C)C (stereo not given)
IC50 [1]: ≤ 0.01 µM
IC50 [2]: ≤ 0.01 µM

COc1cc(Cc2nc(-c3ccc(Cl)cc3)nn3c(=S)[nH]nc23)cc(OC)c1OC
IC50 [6]: 0.74 µg/mL
IC50 [7]: 0.74 µg/mL (≈ 1.67 µM)

Nc1ccc(F)cc1C1=NNC(Nc2ccc(F)cc2)NC1=O (stereo not given)
IC50 [5]: 3.8 µM

CNc1ccc(F)cc1C1=NNC(SC)NC1=O (stereo not given)
IC50 [5]: 5 µM

CN(C)CCCNc1nc2ccccc2[n+]([O-])n1
IC50 [3]: 0.83 µM
Ratio IC50 [4]: 1.2

COc1nc2ccccc2[n+]([O-])n1
IC50 [3]: > 0.3 µM
Ratio IC50 [4]: 3.3

CNCCNc1nc2ccccc2[n+]([O-])n1
IC50 [3]: 2.3 µM
Ratio IC50 [4]: 6.11

CSC1NN=C(c2cc(F)ccc2NC(=O)c2ccc(F)cc2)C(=O)N1 (stereo not given)
IC50 [5]: 3.8 µM

CC(C)(C)CNC(=O)C(C)(C)Nc1cnnc(-c2c[nH]c3ncc(C(N)=O)cc23)n1
IC50 [1]: ≤ 0.01 µM
IC50 [2]: ≤ 0.01 µM

[O-][n+]1nc(CCO)nc2ccccc21
IC50 [3]: > 3 µM
Ratio IC50 [4]: 1.2

Oc1cccc(-n2nc(-c3cc(O)c(O)c(O)c3)c3nc(-c4ccccc4)nnc32)c1
IC50 [8]: 5.2 µM

O=C1NC(SSC2NN=C(c3cc(F)ccc3NC(=O)c3ccc(F)cc3)C(=O)N2)NN=C1c1cc(F)ccc1NC(=O)c1ccc(F)cc1 (stereo not given)
IC50 [5]: 3.8 µM

Nc1ccc(F)cc1C1=NNC(S)NC1=O (stereo not given)
IC50 [5]: 3.8 µM

NNC(=S)Nc1nnc(-c2ccc(F)cc2)c(-c2ccc(F)cc2)n1
IC50 [5]: 11.2 µM

Oc1ccccc1-n1nc(-c2cc(O)c(O)c(O)c2)c2nc(-c3ccccc3)nnc21
IC50 [8]: 15.1 µM

Fc1ccc(-c2nnc(-n3c(=S)[nH][nH]c3=S)nc2-c2ccc(F)cc2)cc1
IC50 [5]: 9.99 µM

CC(C)C(Nc1cnnc(-c2c[nH]c3ncc(C#N)cc23)n1)C(=O)NCC(C)(C)C (stereo not given)
IC50 [1]: ≤ 0.01 µM
IC50 [2]: ≤ 0.01 µM

COc1cc(-c2csc3nnc(-c4ccc(Cl)cc4)nc23)cc(OC)c1OC
IC50 [6]: 0.74 µg/mL
IC50 [7]: 0.74 µg/mL (≈ 1.79 µM)

Fc1ccc(-c2nnc(-n3cn[nH]c3=S)nc2-c2ccc(F)cc2)cc1
IC50 [5]: 10.9 µM

COc1cnc2[nH]cc(-c3nncc(NC(C(=O)NCC(C)(C)C)C(C)C)n3)c2c1 (stereo not given)
IC50 [1]: ≤ 0.01 µM
IC50 [2]: ≤ 0.01 µM

COc1cc(-c2nnc3c(n2)c(-c2cc(O)c(O)c(O)c2)nn3-c2cc(OC)c(OC)c(OC)c2)cc(OC)c1OC
IC50 [8]: 4.5 µM

CN1CCN(CC(=O)Nc2cc(C(=O)Nc3ncc(-c4ccccc4)nn3)ccc2OC(F)(F)F)CC1
IC50 [6]: 0.016 µM

CC(Nc1cnnc(-c2c[nH]c3ncc(C(N)=O)cc23)n1)C(=O)NCC(C)(C)C (stereo not given)
IC50 [1]: ≤ 0.01 µM
IC50 [2]: ≤ 0.01 µM

N#Cc1c[nH]c2c(Nc3nc(N[C@@H]4CCCCC4N)nnc3C(N)=O)cccc12 (single isomer, unassigned)
IC50 [9]: 0.0008 µM
IC50 [10]: 0.014 µM
